Broadly, the EC50 is the concentration needed to bring the measured effect to its halfway point. Usually viability stands for a read-out of living cells in per cent, often relative to untreated cells. Lower therefore signals a greater loss of cells.

Type in all cases: cell-based
Data set [1] has as its system primary hepatocytes isolated from rats. Put plainly: Cell protective effects against doxorubicin in hepatocytes (WST-1 cell viability). Particulars: Hepatocyte; primary rat hepatocytes pretreated with compound for 30 min, then doxorubicin; viability by WST-1 after 24-48 h. In short, it runs like this: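 Rat primary hepatocytes from two-step collagenase perfusion were pretreated for 30 min with compound: 5-step 2- or 3-fold series from 30, 10 or 1 µM, 0.2% DMSO. Doxorubicin or another hepatotoxicant (e.g., CCl4, acetaminophen, H2O2) was then added. Viability after 24–48 h was read by WST-1 (A440), and EC50 was taken as half-maximal protection.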
(Formazan colour is commonly taken as a measure of viable cells.)

Data set [2] concerns SK-N-MC cells. The data set can be described thus: Protective effect when tBHP was treated on brain cells (LDH assay). Particulars: Homo sapiens, tBHP 400 uM, 6 h. On the procedure: In order to assess the protective effect on brain cells, 2×10^4 brain cells were distributed into the 96-well plate using DMEM media (Gibco, 10% FBS), and incubated for 24 h. The Example compounds were serially diluted by 3-fold to the final concentration of 30, 10, 3, 1, 0.3, 0.1 uM, by which each well was treated for 1 h. Cells were treated with tBHP at the final concentration of 400 uM, and incubated for 6 h. 50 uL of media was taken from each well to proceed with LDH assay (Promega). In LDH assay, 50 uL of media was mixed with 50 uL of assay solution. After the reaction for 30 min at room temperature, absorbance was measured at 490 nm using SpectraMax (Molecular Device).

For data set [3], the system named is primary hepatocytes isolated from rats. Put plainly: Hepatocyte protective effect against substances deriving hepatocyte toxicity (WST-1 cell viability). Particulars: for EC50: Rattus norvegicus, Hepatocyte, viability after 24-48 h, WST-1; for viability: primary rat hepatocytes. On the procedure:
Various endogenous/exogenous attacks on the cells trigger the mechanisms of cell death which is broadly classified into two types, i.e. apoptosis or necrosis. Using these cell death mechanisms, in the present experimental example, primacy hepatocytes isolated from rats were treated with drugs which were clinically shown to result in serious side-effects of hepatocyte toxicity or various chemicals which derive cell death, and the compounds synthesized in the Examples were estimated for their hepatocyte protective effects, after 24-48 h. The substances used to derive hepatocyte death include CCl4, ActD, H2O2, doxorubicin, anti-Fas Ab/Actinomycin D, acetaminophen, EtOH, CdCl2, palmitate, stearate, cyclophosphamide, terfenadine, diclofenac, simvastatin, and adefovir. Primary hepatocytes were isolated using the method of Seglen P O (Experimental Cell Research 74 (1972) pp 450-454). Briefly, hepatocytes were isolated according to the two-step collagenase perfusion method, and dead cells were removed by low speed (500 rpm) centrifugation for 10 min using percoll gradient (Kreamer B L etc, In Vitro Cellular & Developmental Biology 22 (1986) pp 201-211). During this step, the viability of cells was maintained 90% or above. The cells were suspended in HepatoZYME media (Gibco BRL), and the number of cells was counted. 1.5×10^4 cells in 100 μl were placed into the collagen-coated 96-well plate (BD biocoat), and adhered on the bottom for 3-4 h.
In order to assess the hepatocyte protective effect, above adhered cells were pretreated with the Example compounds for 30 min. […] 30 min after the treatment by compounds, cells were treated by the substances deriving hepatocyte death or hepatotoxic drugs at the concentrations indicated in Table 1. After 24-48 h, the viability of cells was determined to estimate the hepatocyte protective effects. The viability of cells was determined using WST-1 (MK-400, […]) method by the absorbance at 440 nm. Hepatocyte protective effects of the Example compounds were represented by “EC50” which was calculated from measured values. “EC50” herein means the concentration of the compound at which 50% of maximum protective effect is observed in the experiment.

Data set [4] has as its system Linm5F cells. Put plainly: Protective effect when tBHP was treated on pancreatic cells (SRB method). Conditions: Pancreatic beta cell, tBHP 400 uM, 5 h. The procedure: (§1) In order to determine the protective effect on pancreatic cells, Linm5F cells, a sort of the beta cells, were distributed into the 96-well plate in the amount of 2×10^4 cells/well, and incubated for 24 h. The Example compounds were serially diluted by 3-fold to the final concentration of 30, 10, 3, 1, 0.3, 0.1 uM, by which each well was treated for 1 h. Cells were treated with tBHP at the final concentration of 400 uM, and further incubated for 5 h. Protective effects were determined using SRB (Sulforhodamine B Protein) method in which total amount of cellular protein is stained. Briefly, cells were incubated for 5 h, 50 uL of 4% formaldehyde solution was added to each well to fix the cells, and stored for about 30 min at room temperature. After discarding the media, each well was washed with distilled water 2-3 times, and the plate was dried in an oven at 50°. 50 uL of SRB solution was added to each well, and placed for about 30 min at room temperature. After removing SRB solution, the plate was washed with 1% acetic acid solution 2-3 times. After drying the plate in an oven at 50°, 100 uL of 10 mM Tris was added to elute SRB which was staining the intracellular protein.
Background: The SRB assay estimates cell density from bound dye.

Data set [5] relates to H9C2 cells. Put plainly: Protective effect when tBHP was treated on cardiac cells (SRB method). Particulars: Rattus norvegicus, tBHP 400 uM, 2 h, H9C2 cardiomyocytes. The procedure:
as §1, with “After drying the plate in an oven at 50°, 100 uL of 10 mM Tris was added to elute SRB which was staining the intracellular protein.” left out
In order to assess the protective effect on cardiac cells, H9C2 cells were distributed in the amount of 1.5×10^4 cells/well, and incubated for 24 h. […] Protective effect of each compound was determined using the same SRB method as in Linm5F of above mentioned 2).

As to `O=C(O)C[C@@H]1CSC(c2cc3cc(Cl)cc(NC4CCCC4)c3[nH]2)=N1` [Example 4, [(R)-2-(5-chloro-7-cyclopentylamino-1H-indol-2-yl)-4,5-dihydro-thiazol-4-yl]-acetic acid], the EC50 is 300 nM in data set [1], at most 100 nM in data set [2], under 10000 nM in data set [3] (simvastatin 16 μM) and 400 nM in data set [3] (terfenadine 10 μM). The viability in data set [3] (adefovir 100 μM, compound at 3-30 uM) was determined as 50%; in data set [3] (diclofenac 350 μM, compound at 3-100 uM), 40%.

In the case of `O=C(O)C[C@H]1CSC(c2cc3cccc(NC4CCCC4)c3[nH]2)=N1` [Example 14, [(S)-2-(7-cyclopentylamino-1H-indol-2-yl)-4,5-dihydro-thiazol-4-yl]-acetic acid], the EC50 in data set [4] was 150 nM; in data set [1], 190 nM.

Regarding `Cc1cc(NCC2CCOCC2)c2[nH]c(C3=N[C@@H](CC(=O)O)CS3)cc2c1` [Example 22, [(S)-2-(5-methyl-7-(tetrahydropyran-4-yl)methylamino-1H-indol-2-yl)-4,5-dihydro-thiazol-4-yl]-acetic acid], the half-maximal effective concentration (EC50) in data set [4] was 200 nM; in data set [5], 170 nM; in data set [1], 250 nM.

Consider `O=C(O)C[C@@H]1CSC(c2cc3cc(Oc4ccccc4)cc(NC4CCCC4)c3[nH]2)=N1` [Example 85, [(R)-2-(5-phenoxy-7-cyclopentylamino-1H-indol-2-yl)-4,5-dihydro-thiazol-4-yl]-acetic acid], for which the half-maximal effective concentration (EC50) in data set [5] came to 700 nM; in data set [1], 400 nM.

Turning to `c1ccc(Oc2cc(NC3CCCC3)c3[nH]c(C4=N[C@@H](CCN5CCCC5)CS4)cc3c2)cc1` [Example 249, (5-Phenoxy-2-{(S)-4-[pyrrolidin-1-yl-ethyl]-4,5-dihydro-thiazol-2-yl}-1H-indol-7-yl)-cyclopentyl-amine], in data set [1], the 50% effective concentration (EC50) was 110 nM.

Take `Cc1cc(NC2CCC(F)(F)CC2)c2[nH]c(C3=N[C@@H](CCN4CCNC(=O)C4)CS3)cc2c1` [Example 250, (5-Methyl-2-{(S)-4-[2-oxopiperazin-4-yl-ethyl]-4,5-dihydro-thiazol-2-yl}-1H-indol-7-yl)-4,4-difluorocyclohexyl-amine]: in data set [1], the concentration giving a half-maximal response (EC50) turned out to be 90 nM.

For the molecule `Cc1cc(NC2CCC(F)(F)CC2)c2[nH]c(C3=N[C@@H](CCN4CCOCC4)CS3)cc2c1` [Example 251, (5-Methyl-2-{(S)-4-[morpholin-4-yl-ethyl]-4,5-dihydro-thiazol-2-yl}-1H-indol-7-yl)-4,4-difluorocyclohexyl-amine], in data set [1], the concentration for a half-maximal effect (EC50) stood at 300 nM.

In the case of `Cc1cc(NCC2CCOCC2)c2[nH]c(C3=N[C@@H](CCN4CCNC(=O)C4)CS3)cc2c1` [Example 253, (5-Methyl-2-{(S)-4-[2-oxopiperazin-4-yl-ethyl]-4,5-dihydro-thiazol-2-yl}-1H-indol-7-yl)-(tetrahydropyran-4-yl)methyl-amine], the concentration for a half-maximal effect (EC50) in data set [1] was determined as 200 nM.

Regarding `Clc1cc(NC2CCOCC2)c2[nH]c(C3=N[C@@H](CCN4CCN(c5ccccn5)CC4)CS3)cc2c1` [Example 254, (5-Chloro-2-{(S)-4-[1-(pyridin-2-yl)piperazin-4-yl-ethyl]-4,5-dihydro-thiazol-2-yl}-1H-indol-7-yl)-(tetrahydropyran-4-yl)-amine], in data set [1], the EC50 was 1000 nM.
